Test [1] concerns Klebsiella aerogenes. The test is described as follows: Antibacterial activity against Enterobacter aerogenes after 24 hrs by standard broth microdilution method. In kind it is functional.
The subject of test [2] is Lipid bilayer. Put plainly: Binding affinity to 3.5 mM small unilamellar vesicles containing POPC with pH 6.8 sodium phosphate buffer by Far-UV-CD spectra.
The test system of test [3] is Pseudomonas aeruginosa. Put plainly: Antibacterial activity against Pseudomonas aeruginosa PAO1 after 24 hrs by standard broth microdilution method. In kind it is functional. The following applies: PAO1, 24 h.
Test [4] has as its system Lipid bilayer. The test is described as follows: Binding affinity to 3.5 mM small unilamellar vesicles containing 60% POPE/21%POPG/19%POPC with pH 6.8 sodium phosphate buffer by Far-UV-CD spectra.
Test [5] has as its system Lipopolysaccharide (LPS). Put plainly: Binding affinity to lipopolysaccharides collected from Pseudomonas aeruginosa assessed as helical conformation with 40 mM sodium phosphate buffer at pH 6.8.
The subject of test [6] is Staphylococcus aureus. Put plainly: Antibacterial activity against methicillin-sensitive Staphylococcus aureus UAMS-1 after 24 hrs by standard broth microdilution method. In kind it is functional. The following applies: UAMS-1, 24 h.
Test [7] concerns Enterococcus faecium. The test is described as follows: Antibacterial activity against Enterococcus faecium MMC4 after 24 hrs by standard broth microdilution method. In kind it is functional. The following applies: MMC4, 24 h.
Test [8] concerns Klebsiella pneumoniae. The test is described as follows: Antibacterial activity against ampicillin, azithromycin, chloramphenicol, gentamicin, and tetracycline-resistant Klebsiella pneumoniae BAMS clinical isolate 07-18 after 24 hrs by standard broth microdilution method. In kind it is functional. The following applies: BAMS clinical isolate 07-18, 24 h.
Test [9] deals with Lipid bilayer. Put plainly: Binding affinity to 3.5 mM small unilamellar vesicles containing 4:1 POPC/POPG with pH 6.8 sodium phosphate buffer by Far-UV-CD spectra.
A short description of test [10]: Binding affinity to 80 mM Dodecylphosphocholine micelles assessed as Lys connectivities with pH 4.4 sodium acetate buffer by TOCSY spectra.
The subject of test [11] is Lipopolysaccharide (LPS). The test is described as follows: Binding affinity to lipopolysaccharides collected from Escherichia coli assessed as helical conformation with 40 mM sodium phosphate buffer at pH 6.8.
Test [12] deals with Acinetobacter baumannii. The test is described as follows: Antibacterial activity against ampicillin, gentamicin, kanamycin, streptomycin, and tetracycline-resistant Acinetobacter baumannii WRAIR clinical isolate 13 after 24 hrs by standard broth microdilution method. In kind it is functional. The following applies: WRAIR clinical isolate 13, 24 h.
Test [13] in a line: Binding affinity to sodium dodecyl sulfate micelles assessed as Lys connectivities with pH 4.4 sodium acetate buffer by TOCSY spectra.
In test [14] the test system is Lipopolysaccharide (LPS). The test is described as follows: Binding affinity to lipopolysaccharides collected from Klebsiella pneumoniae assessed as helical conformation with 40 mM sodium phosphate buffer at pH 6.8.

This is an account of results in ChEMBL document CHEMBL3397035, “Spectral and biological evaluation of a synthetic antimicrobial peptide derived from 1-aminocyclohexane carboxylic acid” (2015).

In brackets after ≈: the same amount, converted by molar mass. Activity calls are given as the source filed them. No cut-off for these calls is given here. Square brackets hold non-standard residues; d marks the D form. Peptide text beside a SMILES is read from it. Ac6c = NC1(C(=O)O)CCCCC1

For the compound `CC(=O)NCC(=O)N[C@@H](Cc1ccccc1)C(=O)NC1(C(=O)NCC(=O)NC2(C(=O)N[C@@H](CCCCN)C(=O)NC3(C(=O)NCC(=O)NC4(C(=O)N[C@@H](Cc5ccccc5)C(=O)NC5(C(=O)NCC(=O)NC6(C(=O)NCC(=O)N[C@@H](CCCCN)C(=O)NC7(C(=O)N[C@@H](CCCCN)C(=O)N[C@@H](CCCCN)C(=O)N[C@@H](CCCCN)C(=O)N[C@@H](CCCCN)C(N)=O)CCCCC7)CCCCC6)CCCCC5)CCCCC4)CCCCC3)CCCCC2)CCCCC1` (Ac-GF[Ac6c]G[Ac6c]K[Ac6c]G[Ac6c]F[Ac6c]G[Ac6c]GK[Ac6c]KKKK-NH2), the MIC in [1] was found to be 21.9 µM (≈ 50 µg/mL); in [3], 21.9 µM (≈ 50 µg/mL); in [6] it was 10.9 µM (≈ 24.9 µg/mL); in [7], 10.9 µM (≈ 24.9 µg/mL); in test [8], 43 µM (≈ 98.2 µg/mL); in [12], 10.9 µM (≈ 24.9 µg/mL). Besides, the result in [2] was inactive. For the same compound, the result in [4], in test [5], in test [9], in [10], in [11] and in test [13] was Active. Besides, the result in test [14] was Active.
